# Measurements taken from patent EP1880990A1, “NOVEL ORGANIC ELECTROLUMINESCENT MATERIAL, ORGANIC ELECTROLUMINESCENT ELEMENT EMPLOYING THE SAME, AND THIN-FILM-FORMING SOLUTION FOR ORGANIC ELECTROLUMINESCENCE” (IDEMITSU KOSAN CO., LTD., priority 2005, dated 2006).
# Experiment: Ionization potential
# Assay type: physicochemical
# Conditions: not given
row,SMILES,Ionization potential
1,CCCCCCCCC1(CCCCCCCC)c2cc(N(c3ccccc3)c3ccc(-c4ccc(N(c5ccc(-c6ccccc6)cc5)c5ccc(-c6ccccc6)cc5)cc4)cc3)ccc2-c2ccc(N(c3ccccc3)c3ccc(-c4ccc(N(c5ccc(-c6ccccc6)cc5)c5ccc(-c6ccccc6)cc5)cc4)cc3)cc21 [Compound 10],5.14 eV

# Experiment: Solubility in toluene
# Assay type: physicochemical
# Conditions: 1 % by mass in toluene
# Description: A preparation of 1 % by mass toluene solution was tried employing Compound C below instead of Compound 1 in accordance with the same procedures as those conducted in Example 1.
# A preparation of 1 % by mass toluene solution was tried employing Compound D below instead of Compound 1 in accordance with the same procedures as those conducted in Example 1.
row,SMILES,Preparation of 1 % by mass toluene solution
1,"c1ccc(-c2ccc(N(c3ccc(-c4ccccc4)cc3)c3ccc(-c4ccc(N(c5ccc(-c6ccccc6)cc5)c5ccc(-c6ccccc6)cc5)cc4)cc3)cc2)cc1 [Compound D, reference compound]",did not dissolve in toluene
2,"c1ccc(N(c2ccc(-c3ccc(N(c4ccccc4)c4cccc5ccccc45)cc3)cc2)c2cccc3ccccc23)cc1 [Compound C, reference compound]",did not dissolve in toluene

# Same assay, conditions: toluene; soluble in an amount of ... or more
row,SMILES,Solubility (toluene)
1,CCC(C)c1ccc(N(c2ccc(-c3ccc(-c4cccc(-c5cccc(-c6ccc(-c7ccc(N(c8ccc(-c9ccc(N(c%10ccc(-c%11ccccc%11)cc%10)c%10ccc(-c%11ccccc%11)cc%10)cc9)cc8)c8ccc(C(C)CC)cc8)cc7)cc6)c5)c4)cc3)cc2)c2ccc(-c3ccc(N(c4ccc(-c5ccccc5)cc4)c4ccc(-c5ccccc5)cc4)cc3)cc2)cc1 (centres unmarked) [Compound 7],≥ 1 wt %
2,CCC(C)c1ccc(N(c2ccc(-c3ccc(-c4cccc(-c5ccc(-c6ccc(N(c7ccc(-c8ccc(N(c9ccccc9)c9ccccc9)cc8)cc7)c7ccc(C(C)CC)cc7)cc6)cc5)c4)cc3)cc2)c2ccc(-c3ccc(N(c4ccccc4)c4ccccc4)cc3)cc2)cc1 (centres unmarked) [Compound 8],≥ 1 wt %
3,CCCCCCCCC1(CCCCCCCC)c2cc(N(c3ccccc3)c3ccc(-c4ccc(N(c5ccc(-c6ccccc6)cc5)c5ccc(-c6ccccc6)cc5)cc4)cc3)ccc2-c2ccc(N(c3ccccc3)c3ccc(-c4ccc(N(c5ccc(-c6ccccc6)cc5)c5ccc(-c6ccccc6)cc5)cc4)cc3)cc21 [Compound 10],≥ 5 wt %
4,CC1(C)c2ccccc2-c2ccc(N(c3ccccc3)c3ccc(-c4ccc(N(c5ccccc5)c5ccc(-c6cccc(-c7cccc(-c8ccc(N(c9ccccc9)c9ccc(-c%10ccc(N(c%11ccccc%11)c%11ccc%12c(c%11)C(C)(C)c%11ccccc%11-%12)cc%10)cc9)cc8)c7)c6)cc5)cc4)cc3)cc21 [Compound 9],≥ 1 wt %
5,c1ccc(N(c2ccc(-c3ccc(N(c4ccccc4)c4cccc5ccccc45)cc3)cc2)c2ccc(-c3cccc(-c4cccc(-c5ccc(N(c6ccccc6)c6ccc(-c7ccc(N(c8ccccc8)c8cccc9ccccc89)cc7)cc6)cc5)c4)c3)cc2)cc1 [Compound 5],≥ 1 wt %
6,CC1(C)c2ccccc2-c2ccc(N(c3ccccc3)c3ccc(-c4ccc(N(c5ccccc5)c5ccc(-c6cccc(-c7ccc(N(c8ccccc8)c8ccc(-c9ccc(N(c%10ccccc%10)c%10ccc%11c(c%10)C(C)(C)c%10ccccc%10-%11)cc9)cc8)cc7)c6)cc5)cc4)cc3)cc21 [Compound 2],≥ 1 wt %
7,CCC(C)c1ccc(N(c2ccc(-c3ccc(N(c4ccccc4)c4ccc5c(c4)C(C)(C)c4ccccc4-5)cc3)cc2)c2ccc(-c3cccc(-c4ccc(N(c5ccc(-c6ccc(N(c7ccccc7)c7ccc8c(c7)C(C)(C)c7ccccc7-8)cc6)cc5)c5ccc(C(C)CC)cc5)cc4)c3)cc2)cc1 (centres unmarked) [Compound 3],≥ 1 wt %
8,CCCCCCCCC1(CCCCCCCC)c2cc(N(c3ccccc3)c3ccc(-c4ccc(N(c5ccccc5)c5ccc6c(c5)C(C)(C)c5ccccc5-6)cc4)cc3)ccc2-c2ccc(N(c3ccccc3)c3ccc(-c4ccc(N(c5ccccc5)c5ccc6c(c5)C(C)(C)c5ccccc5-6)cc4)cc3)cc21 [Compound 4],≥ 1 wt %
